Assays:
Assay in all cases: NCI one-dose assay
Assay type in all cases: cell-based
A549/ATCC = conditions: Homo sapiens, Non-small cell lung cancer, read-out: Cell growth inhibition %
Description: (§1) The National Cancer Institute (NCI), Bethesda, USA, selected the final compounds 6a–j and 7a–j for in vitro anticancer screening. An initial in vitro single-dose anticancer experiment was performed with the entire NCI 60 cell lines derived from nine tumor subpanel cancer cell lines. The results for each compound were illustrated as a mean graph showing the percentage growth of treated cells compared to untreated control cells (see Supplementary Materials).
(§2) The NCI anticancer screening process has been thoroughly detailed. The Drug Evaluation Branch of the National Cancer Institute in Bethesda, […], USA, established the procedure and conducted the anticancer assay on 60 human tumor cell lines from nine neoplastic cancers.

ACHN = conditions: Homo sapiens, Renal cancer, read-out: Cell growth inhibition %
Description: as §1, §2

CAKI-1 = conditions: Homo sapiens, CAKI-1, Renal cancer, read-out: Cell growth inhibition %
Description: as §1, §2

CCRF-CEM = conditions: Homo sapiens, Leukemia, read-out: Cell growth inhibition %
Description: as §1, §2

COLO 205 = conditions: Homo sapiens, COLO 205, Colon cancer, read-out: Cell growth inhibition %
Description: as §1, §2

DU-145 = conditions: Homo sapiens, DU-145, Prostate cancer, read-out: Cell growth inhibition %
Description: as §1, §2

HCT-15 = conditions: Homo sapiens, HCT-15, Colon cancer, read-out: Cell growth inhibition %
Description: as §1, §2

HOP-62 = conditions: Homo sapiens, HOP-62, Non-small cell lung cancer, read-out: Cell growth inhibition %
Description: as §1, §2

HS 578 T = conditions: Homo sapiens, Breast cancer, read-out: Cell growth inhibition %
Description: as §1, §2

IGROV1 = conditions: Homo sapiens, IGROV-1, IGROV1, Ovarian cancer, read-out: Cell growth inhibition %
Description: as §1, §2

K-562 = conditions: Homo sapiens, K562, K-562, Leukemia, read-out: Cell growth inhibition %
Description: as §1, §2

KM12 = conditions: Homo sapiens, KM12, Colon cancer, read-out: Cell growth inhibition %
Description: as §1, §2

M14 = conditions: Homo sapiens, M14, Melanoma, read-out: Cell growth inhibition %
Description: as §1, §2

MALME-3M = conditions: Homo sapiens, Melanoma, read-out: Cell growth inhibition %
Description: as §1, §2

MDA-MB-435 = conditions: Homo sapiens, MDA-MB-435, Melanoma, read-out: Cell growth inhibition %
Description: as §1, §2

MDA-MB-468 = conditions: Homo sapiens, MDA-MB-468, Breast cancer, read-out: Cell growth inhibition %
Description: as §1, §2

MOLT-4 = conditions: Homo sapiens, MOLT-4, Leukemia, read-out: Cell growth inhibition %
Description: as §1, §2

NCI-H226 = conditions: Homo sapiens, NCI-H226, Non-small cell lung cancer, read-out: Cell growth inhibition %
Description: as §1, §2

NCI-H23 = conditions: Homo sapiens, NCI-H23, Non-small cell lung cancer, read-out: Cell growth inhibition %
Description: as §1, §2

NCI/ADR-RES = conditions: Homo sapiens, Ovarian cancer, read-out: Cell growth inhibition %
Description: as §1, §2

OVCAR-3 = conditions: Homo sapiens, OVCAR-3, Ovarian cancer, read-out: Cell growth inhibition %
Description: as §1, §2

OVCAR-4 = conditions: Homo sapiens, OVCAR-4, Ovarian cancer, read-out: Cell growth inhibition %
Description: as §1, §2

OVCAR-5 = conditions: Homo sapiens, OVCAR-5, Ovarian cancer, read-out: Cell growth inhibition %
Description: as §1, §2

OVCAR-8 = conditions: Homo sapiens, OVCAR-8, Ovarian cancer, read-out: Cell growth inhibition %
Description: as §1, §2

PC-3 = conditions: Homo sapiens, PC-3, Prostate cancer, read-out: Cell growth inhibition %
Description: as §1, §2

RPMI-8226 = conditions: Homo sapiens, RPMI-8226, Leukemia, read-out: Cell growth inhibition %
Description: as §1, §2

SF-268 = conditions: Homo sapiens, SF-268, CNS cancer, read-out: Cell growth inhibition %
Description: as §1, §2

SF-539 = conditions: Homo sapiens, SF-539, CNS cancer, read-out: Cell growth inhibition %
Description: as §1, §2

SK-MEL-2 = conditions: Homo sapiens, SK-MEL-2, Melanoma, read-out: Cell growth inhibition %
Description: as §1, §2

SK-MEL-5 = conditions: Homo sapiens, SK-MEL-5, Melanoma, read-out: Cell growth inhibition %
Description: as §1, §2

SN12C = conditions: Homo sapiens, Renal cancer, read-out: Cell growth inhibition %
Description: as §1, §2

SNB-19 = conditions: Homo sapiens, SNB-19, CNS cancer, read-out: Cell growth inhibition %
Description: as §1, §2

SNB-75 = conditions: Homo sapiens, SNB-75, CNS cancer, read-out: Cell growth inhibition %
Description: as §1, §2

SR = conditions: Homo sapiens, Leukemia, read-out: Cell growth inhibition %
Description: as §1, §2

UACC-257 = conditions: Homo sapiens, UACC-257, Melanoma, read-out: Cell growth inhibition %
Description: as §1, §2

UACC-62 = conditions: Homo sapiens, UACC-62, Melanoma, read-out: Cell growth inhibition %
Description: as §1, §2

SMILES | inhibition at 10 µM (A549/ATCC) | inhibition at 10 µM (ACHN) | inhibition at 10 µM (CAKI-1) | inhibition at 10 µM (CCRF-CEM) | inhibition at 10 µM (COLO 205) | inhibition at 10 µM (DU-145) | inhibition at 10 µM (HCT-15) | inhibition at 10 µM (HOP-62) | inhibition at 10 µM (HS 578 T) | inhibition at 10 µM (IGROV1) | inhibition at 10 µM (K-562) | inhibition at 10 µM (KM12) | inhibition at 10 µM (M14) | inhibition at 10 µM (MALME-3M) | inhibition at 10 µM (MDA-MB-435) | inhibition at 10 µM (MDA-MB-468) | inhibition at 10 µM (MOLT-4) | inhibition at 10 µM (NCI-H226) | inhibition at 10 µM (NCI-H23) | inhibition at 10 µM (NCI/ADR-RES) | also measured
C=CCn1c(SCC(=O)c2ccccc2)nnc1-c1c[nH]c2ccccc12 [Compound 6a, 2-((4-Allyl-5-(1H-indol-3-yl)-4H-1,2,4-triazol-3-yl)thio)-1-phenylethanone] | -0.25% | 6.19% | 16.9% | 8.76% | -22.1% | -9.05% | 4% | 7.46% | 2.96% | 11.6% | 7.37% | -11.8% | 2.35% | 13.4% | -5.02% | 12.3% | 7.17% | 12.2% | 0.39% | 2.62% | inhibition at 10 µM (OVCAR-3): -14.8%; inhibition at 10 µM (OVCAR-4): 2.53%; inhibition at 10 µM (OVCAR-5): -3.17%; inhibition at 10 µM (OVCAR-8): 4.58%; inhibition at 10 µM (PC-3): 10.9%; inhibition at 10 µM (RPMI-8226): 13.4%; inhibition at 10 µM (SF-268): -1.91%; inhibition at 10 µM (SF-539): 2.68%; inhibition at 10 µM (SK-MEL-2): -4.98%; inhibition at 10 µM (SK-MEL-5): 3.38%; inhibition at 10 µM (SN12C): 7.27%; inhibition at 10 µM (SNB-19): 1.66%; inhibition at 10 µM (SNB-75): 3.62%; inhibition at 10 µM (SR): 23.5%; inhibition at 10 µM (UACC-257): 2.08%; inhibition at 10 µM (UACC-62): 18.5%
C=CCn1c(SCC(=O)c2ccc(OC)cc2)nnc1-c1c[nH]c2ccccc12 [Compound 6b, 2-((4-Allyl-5-(1H-indol-3-yl)-4H-1,2,4-triazol-3-yl)thio)-1-(4-methoxyphenyl) Ethenone] | -8.47% | 8.68% | 7.83% | 8.66% | 2.83% | -11.8% | 2.44% | 6.07% | 0.85% | 11.1% | 8.14% | -4.63% | -1.55% | 5.32% | -8.45% | 5.01% | 6.64% | 7.5% | 5.52% | -3.74% | inhibition at 10 µM (OVCAR-3): -16.9%; inhibition at 10 µM (OVCAR-4): -4.81%; inhibition at 10 µM (OVCAR-5): -2.88%; inhibition at 10 µM (OVCAR-8): 4.99%; inhibition at 10 µM (PC-3): 20.3%; inhibition at 10 µM (RPMI-8226): 16.8%; inhibition at 10 µM (SF-268): -8.99%; inhibition at 10 µM (SF-539): 1.18%; inhibition at 10 µM (SK-MEL-2): -33.2%; inhibition at 10 µM (SK-MEL-5): 3.34%; inhibition at 10 µM (SN12C): 3.73%; inhibition at 10 µM (SNB-19): -1.42%; inhibition at 10 µM (SNB-75): -14.8%; inhibition at 10 µM (SR): 18.5%; inhibition at 10 µM (UACC-257): -2.78%; inhibition at 10 µM (UACC-62): 15.6%
C=CCn1c(SCC(=O)c2ccc(C)cc2)nnc1-c1c[nH]c2ccccc12 [Compound 6c, 2-((4-allyl-5-(1H-indol-3-yl)-4H-1,2,4-triazol-3-yl)thio)-1-(p-tolyl)ethanone] | 5.97% | 11% | 15.1% | 9.66% | -25.9% | -8.9% | 6.36% | 9.23% | -2.83% | 19.6% | 12.8% | -6.02% | 4.78% | 10.5% | -2.15% | 12.5% | 9.13% | 17.1% | -5.98% | 4.65% | inhibition at 10 µM (OVCAR-3): -13.1%; inhibition at 10 µM (OVCAR-4): -10.4%; inhibition at 10 µM (OVCAR-5): -2.57%; inhibition at 10 µM (OVCAR-8): 10.4%; inhibition at 10 µM (PC-3): 22.2%; inhibition at 10 µM (RPMI-8226): 13.8%; inhibition at 10 µM (SF-268): -3.82%; inhibition at 10 µM (SF-539): 1.45%; inhibition at 10 µM (SK-MEL-2): 1.54%; inhibition at 10 µM (SK-MEL-5): 6.71%; inhibition at 10 µM (SN12C): 5.47%; inhibition at 10 µM (SNB-19): 3.56%; inhibition at 10 µM (SNB-75): -4.77%; inhibition at 10 µM (SR): 8.97%; inhibition at 10 µM (UACC-257): 6.7%; inhibition at 10 µM (UACC-62): 24.7%
C=CCn1c(SCC(=O)c2ccc(Br)cc2)nnc1-c1c[nH]c2ccccc12 [Compound 6d, 2-((4-Allyl-5-(1H-indol-3-yl)-4H-1,2,4-triazol-3-yl)thio)-1-(4-bromophenyl)ethenone] | -3.29% | 11.7% | 9.77% | 2.08% | -7.53% | -6.19% | 0.98% | -2.78% | -5.71% | 13.3% | 14.5% | -2.46% | 2.64% | 9.34% | -8.05% | 13.1% | 8.82% | 9.93% | 4.98% | 1.17% | inhibition at 10 µM (OVCAR-3): -10.4%; inhibition at 10 µM (OVCAR-4): -8.69%; inhibition at 10 µM (OVCAR-5): 3.19%; inhibition at 10 µM (OVCAR-8): 5.3%; inhibition at 10 µM (PC-3): 21.7%; inhibition at 10 µM (RPMI-8226): 1.17%; inhibition at 10 µM (SF-268): -1.95%; inhibition at 10 µM (SF-539): 8.23%; inhibition at 10 µM (SK-MEL-2): -15.3%; inhibition at 10 µM (SK-MEL-5): 4.07%; inhibition at 10 µM (SN12C): 4.39%; inhibition at 10 µM (SNB-19): -0.26%; inhibition at 10 µM (SNB-75): -6.14%; inhibition at 10 µM (SR): 11.3%; inhibition at 10 µM (UACC-257): -7.6%; inhibition at 10 µM (UACC-62): 16.9%
